Reference: PubChem BioAssay (NCI)
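Five compound concentrations were applied to cells in 96-well plates for 48 hours; endpoints were derived by simple linear interpolation of the resulting dose-response curve. Here, GI50 denotes the concentration required for 50% inhibition of growth. TGI: total growth inhibition.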

Tests used:
Assay in all cases: NCI tumour cell line growth inhibition, 48 h
IGROV1 ovarian = test system: IGROV1 ovarian
HCC-2998 colon = test system: HCC-2998 colon
K-562 leukemia = test system: K-562 leukemia
SNB-19 CNS = test system: SNB-19 CNS
HT29 colon = test system: HT29 colon
BT-549 breast = test system: BT-549 breast
SK-MEL-2 melanoma = test system: SK-MEL-2 melanoma
MDA-MB-231 breast = test system: MDA-MB-231 breast
ACHN renal = test system: ACHN renal
UO-31 renal = test system: UO-31 renal
CAKI-1 renal = test system: CAKI-1 renal
HOP-92 NSCLC = test system: HOP-92 NSCLC
MCF7 breast = test system: MCF7 breast
SNB-75 CNS = test system: SNB-75 CNS
HL-60(TB) leukemia = test system: HL-60(TB) leukemia
MDA-MB-435 = test system: MDA-MB-435
RPMI-8226 leukemia = test system: RPMI-8226 leukemia
OVCAR-3 ovarian = test system: OVCAR-3 ovarian
DU-145 prostate = test system: DU-145 prostate
MOLT-4 leukemia = test system: MOLT-4 leukemia
SR leukemia = test system: SR leukemia
UACC-62 melanoma = test system: UACC-62 melanoma
SF-539 CNS = test system: SF-539 CNS
LOX IMVI melanoma = test system: LOX IMVI melanoma
COLO 205 colon = test system: COLO 205 colon
SW-620 colon = test system: SW-620 colon
A549 NSCLC = test system: A549 NSCLC
SF-268 CNS = test system: SF-268 CNS
HS 578T breast = test system: HS 578T breast
U251 CNS = test system: U251 CNS
CCRF-CEM leukemia = test system: CCRF-CEM leukemia
SN12C renal = test system: SN12C renal
RXF 393 renal = test system: RXF 393 renal
SK-MEL-28 melanoma = test system: SK-MEL-28 melanoma
NCI-H23 lung = test system: NCI-H23 lung
NCI-H460 lung = test system: NCI-H460 lung
OVCAR-5 ovarian = test system: OVCAR-5 ovarian
HCT-116 colon = test system: HCT-116 colon
A498 renal = test system: A498 renal
HOP-62 NSCLC = test system: HOP-62 NSCLC
786-0 renal = test system: 786-0 renal
SK-MEL-5 melanoma = test system: SK-MEL-5 melanoma
PC-3 prostate = test system: PC-3 prostate
OVCAR-4 ovarian = test system: OVCAR-4 ovarian
NCI/ADR-RES ovarian = test system: NCI/ADR-RES ovarian
KM12 colon = test system: KM12 colon
SK-OV-3 ovarian = test system: SK-OV-3 ovarian
M14 melanoma = test system: M14 melanoma
OVCAR-8 ovarian = test system: OVCAR-8 ovarian
UACC-257 melanoma = test system: UACC-257 melanoma
T-47D breast = test system: T-47D breast
MALME-3M melanoma = test system: MALME-3M melanoma
NCI-H226 lung = test system: NCI-H226 lung
HCT-15 colon = test system: HCT-15 colon
TK-10 renal = test system: TK-10 renal

COc1ccc(/C=C2\CCCC3=C2NC(C)=NC3c2ccc(OC)c(OC)c2)cc1OC (stereo not given)
GI50 (IGROV1 ovarian): 50.6 µM | TGI (IGROV1 ovarian): > 100 µM | GI50 (HCC-2998 colon): > 100 µM | TGI (HCC-2998 colon): > 100 µM | GI50 (K-562 leukemia): 4.54 µM | TGI (K-562 leukemia): > 100 µM | GI50 (SNB-19 CNS): 67.1 µM | TGI (SNB-19 CNS): > 100 µM | GI50 (HT29 colon): 21.7 µM | TGI (HT29 colon): > 100 µM | GI50 (BT-549 breast): 23.7 µM | TGI (BT-549 breast): > 100 µM | GI50 (SK-MEL-2 melanoma): 15.9 µM | TGI (SK-MEL-2 melanoma): > 100 µM | GI50 (MDA-MB-231 breast): 12.9 µM | TGI (MDA-MB-231 breast): 75.3 µM | GI50 (ACHN renal): 6.74 µM | TGI (ACHN renal): > 100 µM | GI50 (UO-31 renal): 31.1 µM | TGI (UO-31 renal): > 100 µM | GI50 (CAKI-1 renal): 21.4 µM | TGI (CAKI-1 renal): > 100 µM | GI50 (HOP-92 NSCLC): 18.9 µM | TGI (HOP-92 NSCLC): 92.6 µM | GI50 (MCF7 breast): 2.44 µM | TGI (MCF7 breast): > 100 µM | GI50 (SNB-75 CNS): 32 µM | TGI (SNB-75 CNS): > 100 µM | GI50 (HL-60(TB) leukemia): 5.84 µM | TGI (HL-60(TB) leukemia): > 100 µM | GI50 (MDA-MB-435): 1.05 µM | TGI (MDA-MB-435): > 100 µM | GI50 (RPMI-8226 leukemia): 0.848 µM | TGI (RPMI-8226 leukemia): 56.3 µM | GI50 (OVCAR-3 ovarian): 5.47 µM | TGI (OVCAR-3 ovarian): > 100 µM | GI50 (DU-145 prostate): 16.5 µM | TGI (DU-145 prostate): > 100 µM | GI50 (MOLT-4 leukemia): 24.8 µM | TGI (MOLT-4 leukemia): > 100 µM | GI50 (SR leukemia): 1.99 µM | TGI (SR leukemia): > 100 µM | GI50 (UACC-62 melanoma): 12.9 µM | TGI (UACC-62 melanoma): > 100 µM | GI50 (SF-539 CNS): 27.5 µM | TGI (SF-539 CNS): > 100 µM | GI50 (LOX IMVI melanoma): 51.1 µM | TGI (LOX IMVI melanoma): > 100 µM | GI50 (COLO 205 colon): 5.5 µM | TGI (COLO 205 colon): > 100 µM | GI50 (SW-620 colon): 7.69 µM | TGI (SW-620 colon): > 100 µM | GI50 (A549 NSCLC): 53.7 µM | TGI (A549 NSCLC): > 100 µM | GI50 (SF-268 CNS): 21 µM | TGI (SF-268 CNS): > 100 µM | GI50 (HS 578T breast): 39.1 µM | TGI (HS 578T breast): > 100 µM | GI50 (U251 CNS): 23.4 µM | TGI (U251 CNS): > 100 µM | GI50 (CCRF-CEM leukemia): 2.75 µM | TGI (CCRF-CEM leukemia): > 100 µM | GI50 (SN12C renal): 63.9 µM | TGI (SN12C renal): > 100 µM | GI50 (RXF 393 renal): 4.02 µM | TGI (RXF 393 renal): 16.3 µM | GI50 (SK-MEL-28 melanoma): > 100 µM | TGI (SK-MEL-28 melanoma): > 100 µM | GI50 (NCI-H23 lung): 28.6 µM | TGI (NCI-H23 lung): > 100 µM | GI50 (NCI-H460 lung): 47.7 µM | TGI (NCI-H460 lung): > 100 µM | GI50 (OVCAR-5 ovarian): 71 µM | TGI (OVCAR-5 ovarian): > 100 µM | GI50 (HCT-116 colon): 2.39 µM | TGI (HCT-116 colon): 22.1 µM | GI50 (A498 renal): 16.4 µM | TGI (A498 renal): > 100 µM | GI50 (HOP-62 NSCLC): 3.75 µM | TGI (HOP-62 NSCLC): 38.8 µM | GI50 (786-0 renal): 33.7 µM | TGI (786-0 renal): > 100 µM | GI50 (SK-MEL-5 melanoma): 9.43 µM | TGI (SK-MEL-5 melanoma): > 100 µM | GI50 (PC-3 prostate): 37.4 µM | TGI (PC-3 prostate): > 100 µM | GI50 (OVCAR-4 ovarian): 12.4 µM | TGI (OVCAR-4 ovarian): > 100 µM | GI50 (NCI/ADR-RES ovarian): 15.2 µM | TGI (NCI/ADR-RES ovarian): > 100 µM | GI50 (KM12 colon): 61.2 µM | TGI (KM12 colon): > 100 µM | GI50 (SK-OV-3 ovarian): 19.2 µM | TGI (SK-OV-3 ovarian): > 100 µM | GI50 (M14 melanoma): 18.6 µM | TGI (M14 melanoma): > 100 µM | GI50 (OVCAR-8 ovarian): 4.68 µM | TGI (OVCAR-8 ovarian): > 100 µM | GI50 (UACC-257 melanoma): 10.9 µM | TGI (UACC-257 melanoma): > 100 µM | GI50 (T-47D breast): 14.7 µM | TGI (T-47D breast): > 100 µM | GI50 (MALME-3M melanoma): 22.2 µM | TGI (MALME-3M melanoma): > 100 µM | GI50 (NCI-H226 lung): 12.2 µM | TGI (NCI-H226 lung): 99.8 µM | GI50 (HCT-15 colon): 3.52 µM | TGI (HCT-15 colon): > 100 µM | GI50 (TK-10 renal): 12.3 µM | TGI (TK-10 renal): 74.7 µM
